Measurements published in patent US20240101576A1, “HETEROCYCLIC INHIBITORS OF EGFR AND/OR HER2, FOR USE IN THE TREATMENT OF CANCER” (Scorpion Therapeutics, Inc., priority 2020, published 2024).

Assays:
Assay type in all cases: cell-based
EGFR WT (Ba/F3 cells) = target: T1, EGFR WT (Ba/F3 cells) (Homo sapiens, UniProt P00533); assay: Inhibitor activity on EGFR-dependent cell growth (CellTiter-Glo, 72 h), Ba/F3 EGFR WT; conditions: read-out: BaF3 WT IC50
T1 construct: expressed in transfected cells; host or cells: Ba/F3 (murine pro-B cells), retroviral transduction, puromycin selection, maintained with EGF
Procedure, shortened: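 This growth assay used Ba/F3 cells that depend on wild-type EGFR and are kept in EGF without IL3. Compounds were made up as 10 mM DMSO stocks and diluted 3-fold over 10 points. 120 nL went onto 600 cells/well. After 72 hours, 40 μL CellTiter-Glo was added and luminescence read on EnVision after 30 min.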

[1] = target: T2, EGFR exon 20 ASV Ins V769_D770 (Ba/F3 cells) (Homo sapiens, UniProt P00533, INS769ASV); assay: Inhibitor activity on EGFR-dependent cell growth (CellTiter-Glo, 72 h), Ba/F3 EGFR exon 20 ASV Ins; conditions: read-out: BaF3 ASV IC50
T2 construct: expressed in transfected cells; host or cells: Ba/F3 (murine pro-B cells), retroviral transduction, puromycin selection, IL3-independent pool
Procedure, shortened: (§1)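 IC50s derive from a sigmoidal dose–response fit of CellTiter-Glo signal. The signal was normalised between […]-treated cells and cell-free medium. Ba/F3 mutant-EGFR cells, seeded at 400–800/well depending on the line, had 72 h of exposure to a 10-point, 3-fold compound series.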

[2] = target: T3, EGFR exon 20 SVD Ins D770_N771 (Ba/F3 cells) (Homo sapiens, UniProt P00533, INS770SVD); assay: Inhibitor activity on EGFR-dependent cell growth (CellTiter-Glo, 72 h), Ba/F3 EGFR exon 20 SVD Ins; conditions: read-out: BaF3 SVD IC50
T3 construct: expressed in transfected cells; host or cells: Ba/F3 (murine pro-B cells), retroviral transduction, puromycin selection, IL3-independent pool
Procedure, shortened: as §1

[3] = target: T4, EGFR exon 20 FQEA Ins A763_V764 (Ba/F3 cells) (Homo sapiens, UniProt P00533, INS763FQEA); assay: Inhibitor activity on EGFR-dependent cell growth (CellTiter-Glo, 72 h), Ba/F3 EGFR exon 20 FQEA Ins; conditions: read-out: BaF3 FQEA IC50
T4 construct: expressed in transfected cells; host or cells: Ba/F3 (murine pro-B cells), retroviral transduction, puromycin selection, IL3-independent pool
Procedure, shortened: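 Compounds, serially diluted 3-fold over 10 points in DMSO and added at 120 nL per well, act on Ba/F3 EGFR-mutant cells for 72 h. Seeding is 800 (exon 19del, FQEA), 600 (L858R/C797S) or 400 (L858R) cells/well. CTG luminescence is fitted with a four-parameter logistic curve to give IC50.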

T1 sequence (P00533 25-1210): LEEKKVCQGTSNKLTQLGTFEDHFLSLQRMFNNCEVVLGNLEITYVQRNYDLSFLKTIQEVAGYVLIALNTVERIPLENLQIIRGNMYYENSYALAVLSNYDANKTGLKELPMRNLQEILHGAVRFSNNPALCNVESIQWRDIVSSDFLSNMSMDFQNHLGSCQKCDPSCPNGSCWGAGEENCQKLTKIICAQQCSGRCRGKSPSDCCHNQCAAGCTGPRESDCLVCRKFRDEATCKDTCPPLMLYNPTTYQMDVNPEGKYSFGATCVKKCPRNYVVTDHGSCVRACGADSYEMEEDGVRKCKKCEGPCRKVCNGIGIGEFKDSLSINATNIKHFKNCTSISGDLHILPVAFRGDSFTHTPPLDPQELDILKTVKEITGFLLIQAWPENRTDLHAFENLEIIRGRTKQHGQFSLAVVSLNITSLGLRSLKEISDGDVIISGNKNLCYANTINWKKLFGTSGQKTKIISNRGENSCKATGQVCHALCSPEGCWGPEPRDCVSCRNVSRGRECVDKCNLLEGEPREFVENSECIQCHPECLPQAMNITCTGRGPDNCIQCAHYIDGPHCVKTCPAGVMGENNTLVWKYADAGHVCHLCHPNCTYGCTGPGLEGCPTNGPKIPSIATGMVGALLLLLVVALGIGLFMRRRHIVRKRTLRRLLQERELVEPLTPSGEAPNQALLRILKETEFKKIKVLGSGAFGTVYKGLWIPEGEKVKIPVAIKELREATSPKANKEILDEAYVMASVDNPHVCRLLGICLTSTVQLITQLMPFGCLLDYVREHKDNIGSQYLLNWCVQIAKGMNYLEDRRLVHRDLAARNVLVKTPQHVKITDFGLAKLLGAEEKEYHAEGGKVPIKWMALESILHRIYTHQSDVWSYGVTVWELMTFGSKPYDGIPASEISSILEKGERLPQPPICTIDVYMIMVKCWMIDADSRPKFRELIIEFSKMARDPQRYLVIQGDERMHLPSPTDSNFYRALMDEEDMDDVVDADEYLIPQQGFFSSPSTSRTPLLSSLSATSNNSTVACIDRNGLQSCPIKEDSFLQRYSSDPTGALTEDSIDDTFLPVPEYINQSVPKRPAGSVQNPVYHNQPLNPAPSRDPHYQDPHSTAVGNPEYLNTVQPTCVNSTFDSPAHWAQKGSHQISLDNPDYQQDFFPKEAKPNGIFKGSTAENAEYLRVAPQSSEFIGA
T3 sequence (P00533 with tags, fused parts or gaps INS770SVD): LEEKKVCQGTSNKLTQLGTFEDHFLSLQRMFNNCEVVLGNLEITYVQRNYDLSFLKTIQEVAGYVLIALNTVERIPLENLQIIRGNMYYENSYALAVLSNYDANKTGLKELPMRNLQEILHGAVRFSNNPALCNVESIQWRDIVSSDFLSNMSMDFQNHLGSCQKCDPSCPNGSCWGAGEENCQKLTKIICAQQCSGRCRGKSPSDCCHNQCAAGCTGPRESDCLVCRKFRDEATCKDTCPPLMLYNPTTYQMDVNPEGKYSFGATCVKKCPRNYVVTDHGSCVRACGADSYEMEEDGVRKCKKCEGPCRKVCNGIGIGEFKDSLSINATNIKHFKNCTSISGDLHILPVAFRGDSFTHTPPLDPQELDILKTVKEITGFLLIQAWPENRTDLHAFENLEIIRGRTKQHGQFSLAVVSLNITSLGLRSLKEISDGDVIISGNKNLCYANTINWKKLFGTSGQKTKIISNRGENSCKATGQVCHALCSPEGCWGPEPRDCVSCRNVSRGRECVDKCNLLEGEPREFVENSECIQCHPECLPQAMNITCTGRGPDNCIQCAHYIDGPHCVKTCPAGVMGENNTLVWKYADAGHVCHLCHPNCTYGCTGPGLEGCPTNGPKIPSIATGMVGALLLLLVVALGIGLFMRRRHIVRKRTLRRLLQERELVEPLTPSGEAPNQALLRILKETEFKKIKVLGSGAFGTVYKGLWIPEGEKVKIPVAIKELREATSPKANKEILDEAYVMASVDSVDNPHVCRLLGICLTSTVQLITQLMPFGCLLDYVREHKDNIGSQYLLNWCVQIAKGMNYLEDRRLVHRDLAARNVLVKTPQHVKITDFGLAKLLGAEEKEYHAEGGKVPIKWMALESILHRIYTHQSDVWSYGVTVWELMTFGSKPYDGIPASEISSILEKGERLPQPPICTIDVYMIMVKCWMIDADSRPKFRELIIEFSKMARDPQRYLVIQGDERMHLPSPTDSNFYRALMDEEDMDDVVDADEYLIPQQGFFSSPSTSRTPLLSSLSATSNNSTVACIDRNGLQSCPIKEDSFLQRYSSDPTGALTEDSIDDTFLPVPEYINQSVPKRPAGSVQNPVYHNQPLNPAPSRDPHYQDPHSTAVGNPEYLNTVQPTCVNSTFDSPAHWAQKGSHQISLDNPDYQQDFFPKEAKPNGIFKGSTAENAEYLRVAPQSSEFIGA
T2 sequence (P00533 with tags, fused parts or gaps INS769ASV): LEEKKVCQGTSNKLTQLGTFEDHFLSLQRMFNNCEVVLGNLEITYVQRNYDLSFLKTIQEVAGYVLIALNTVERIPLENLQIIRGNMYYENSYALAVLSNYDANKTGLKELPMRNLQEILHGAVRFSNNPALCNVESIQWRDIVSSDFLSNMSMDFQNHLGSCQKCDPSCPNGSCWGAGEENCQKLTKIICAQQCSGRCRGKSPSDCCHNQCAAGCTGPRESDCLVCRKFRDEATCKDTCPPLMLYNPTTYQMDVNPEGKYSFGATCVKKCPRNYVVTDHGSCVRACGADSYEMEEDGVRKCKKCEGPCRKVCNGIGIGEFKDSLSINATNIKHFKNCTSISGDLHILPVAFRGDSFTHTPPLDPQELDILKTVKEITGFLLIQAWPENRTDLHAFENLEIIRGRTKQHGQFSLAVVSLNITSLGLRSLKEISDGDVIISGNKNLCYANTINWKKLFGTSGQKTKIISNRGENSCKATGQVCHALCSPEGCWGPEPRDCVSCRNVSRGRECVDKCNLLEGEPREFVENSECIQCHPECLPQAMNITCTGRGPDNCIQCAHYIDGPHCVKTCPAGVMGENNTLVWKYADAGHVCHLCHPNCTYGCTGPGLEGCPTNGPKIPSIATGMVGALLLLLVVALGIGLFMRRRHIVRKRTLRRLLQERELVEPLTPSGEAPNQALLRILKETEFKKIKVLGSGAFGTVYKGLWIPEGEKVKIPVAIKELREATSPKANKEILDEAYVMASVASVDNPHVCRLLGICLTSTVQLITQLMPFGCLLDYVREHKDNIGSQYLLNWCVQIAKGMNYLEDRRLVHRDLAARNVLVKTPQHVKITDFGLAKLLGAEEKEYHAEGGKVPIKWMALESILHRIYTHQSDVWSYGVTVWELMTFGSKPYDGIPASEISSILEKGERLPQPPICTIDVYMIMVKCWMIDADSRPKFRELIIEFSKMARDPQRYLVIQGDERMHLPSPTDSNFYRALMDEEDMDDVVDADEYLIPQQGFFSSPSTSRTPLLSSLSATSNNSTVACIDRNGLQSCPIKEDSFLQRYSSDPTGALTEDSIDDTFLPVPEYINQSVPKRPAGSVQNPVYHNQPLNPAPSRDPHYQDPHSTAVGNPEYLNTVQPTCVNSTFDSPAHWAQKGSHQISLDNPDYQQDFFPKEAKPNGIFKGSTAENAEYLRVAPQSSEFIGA
T4 sequence (P00533 with tags, fused parts or gaps INS763FQEA): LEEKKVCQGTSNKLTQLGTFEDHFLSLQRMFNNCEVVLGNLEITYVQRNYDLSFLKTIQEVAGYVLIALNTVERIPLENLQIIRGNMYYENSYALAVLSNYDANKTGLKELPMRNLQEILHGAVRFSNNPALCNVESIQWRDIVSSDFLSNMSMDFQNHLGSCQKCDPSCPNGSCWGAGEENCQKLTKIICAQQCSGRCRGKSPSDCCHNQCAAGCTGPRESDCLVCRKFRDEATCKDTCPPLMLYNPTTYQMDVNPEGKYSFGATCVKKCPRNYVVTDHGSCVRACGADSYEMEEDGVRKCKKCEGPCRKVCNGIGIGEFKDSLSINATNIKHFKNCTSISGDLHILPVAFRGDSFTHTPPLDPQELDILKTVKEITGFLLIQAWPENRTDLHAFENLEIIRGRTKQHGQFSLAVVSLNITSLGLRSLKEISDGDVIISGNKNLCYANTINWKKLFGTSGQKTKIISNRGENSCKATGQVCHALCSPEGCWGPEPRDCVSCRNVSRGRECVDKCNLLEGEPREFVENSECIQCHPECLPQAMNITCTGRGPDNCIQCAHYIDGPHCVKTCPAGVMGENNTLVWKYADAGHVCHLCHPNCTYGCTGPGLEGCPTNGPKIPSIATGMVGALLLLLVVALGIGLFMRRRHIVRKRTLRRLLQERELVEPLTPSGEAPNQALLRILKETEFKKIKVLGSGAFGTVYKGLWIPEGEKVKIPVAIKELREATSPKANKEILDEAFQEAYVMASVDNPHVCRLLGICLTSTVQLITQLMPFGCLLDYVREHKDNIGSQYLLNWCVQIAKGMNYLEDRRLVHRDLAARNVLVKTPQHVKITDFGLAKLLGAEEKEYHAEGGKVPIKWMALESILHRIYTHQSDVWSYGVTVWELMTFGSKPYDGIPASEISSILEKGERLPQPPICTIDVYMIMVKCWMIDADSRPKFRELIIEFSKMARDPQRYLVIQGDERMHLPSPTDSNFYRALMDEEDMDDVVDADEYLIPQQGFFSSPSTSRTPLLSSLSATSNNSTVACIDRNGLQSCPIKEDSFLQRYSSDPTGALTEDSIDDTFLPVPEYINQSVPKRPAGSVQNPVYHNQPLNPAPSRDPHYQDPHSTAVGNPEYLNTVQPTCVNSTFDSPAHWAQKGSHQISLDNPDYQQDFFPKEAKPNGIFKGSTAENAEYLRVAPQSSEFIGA

Structure (SMILES)	IC50 (EGFR WT (Ba/F3 cells)) [nM]	IC50 [1] [nM]	IC50 [2] [nM]	IC50 [3] [nM]
COc1c(F)cccc1Nc1c(-c2ccnc3cnc(OC4COC4)nc23)[nH]c2c1C(=O)NCC2 [compound 440]	100 to 1000	< 100	< 100	< 100
COc1c(Cl)cccc1Nc1c(-c2ccnc(C(F)F)n2)[nH]c2c1C(=O)NCC2 [compound 472, 3-[(3-chloro-2-methoxyphenyl)amino]-2-[2-(difluoromethyl)pyrimidin-4-yl]-1H,5H,6H,7H-pyrrolo[3,2-c]pyridin-4-one]	> 1000	100 to 1000	100 to 1000	> 1000
COc1c(Cl)cccc1Nc1c(-c2ccncc2F)[nH]c2c1C(=O)NC[C@@H]2CCN(C)C [compound 475, (7S)-3-[(3-chloro-2-methoxyphenyl)amino]-7-[2-(dimethylamino)ethyl]-2-(3-fluoropyridin-4-yl)-1H,5H,6H,7H-pyrrolo[3,2-c]pyridin-4-one]	> 1000	> 1000	> 1000	> 1000
COc1c(Cl)cccc1Nc1c(-c2ccnc(C(F)(F)F)n2)[nH]c2c1C(=O)NCC2 [compound 476, 3-[(3-chloro-2-methoxyphenyl)amino]-2-[2-(trifluoromethyl)pyrimidin-4-yl]-1H,5H,6H,7H-pyrrolo[3,2-c]pyridin-4-one]	> 1000	> 1000	> 1000	> 1000
COc1nc2c(-c3[nH]c4c(c3Nc3cccc(Cl)c3OC)C(=O)NCC4)ccnc2cc1F [compound 477, 3-[(3-chloro-2-methoxyphenyl)amino]-2-(7-fluoro-6-methoxy-1,5-naphthyridin-4-yl)-1H,5H,6H,7H-pyrrolo[3,2-c]pyridin-4-one]	100 to 1000	< 100	< 100	< 100
COc1c(Cl)cccc1Nc1c(-c2ccncc2F)[nH]c2c1C(=O)NC[C@H]2CCN1CCOCC1 [compound 484, (7R)-3-[(3-chloro-2-methoxyphenyl)amino]-2-(3-fluoropyridin-4-yl)-7-[2-(morpholin-4-yl)ethyl]-1H,5H,6H,7H-pyrrolo[3,2-c]pyridin-4-one]	> 1000	> 1000	> 1000	> 1000
COc1c(Cl)cccc1Nc1c(-c2ccncc2F)[nH]c2c1C(=O)NC[C@@H]2CCN1CCOCC1 [compound 485, (7S)-3-[(3-chloro-2-methoxyphenyl)amino]-2-(3-fluoropyridin-4-yl)-7-[2-(morpholin-4-yl)ethyl]-1H,5H,6H,7H-pyrrolo[3,2-c]pyridin-4-one]	> 1000	> 1000	> 1000	> 1000
COc1c(Cl)cccc1Nc1c(-c2ccncc2F)[nH]c2c1C(=O)NC[C@H]2CCN(C)C [compound 486, (7R)-3-[(3-chloro-2-methoxyphenyl)amino]-7-[2-(dimethylamino)ethyl]-2-(3-fluoropyridin-4-yl)-1H,5H,6H,7H-pyrrolo[3,2-c]pyridin-4-one]	> 1000	> 1000	> 1000	> 1000
COc1c(Cl)cccc1Nc1c(-c2ccncc2F)[nH]c2c1C(=O)NC[C@]21CCN(C(C)=O)C1 [compound 491]	> 1000	> 1000	> 1000	> 1000
COc1c(Cl)cccc1Nc1c(-c2ccncc2F)[nH]c2c1C(=O)NC[C@@]21CCN(C(C)=O)C1 [compound 492]	> 1000	> 1000	> 1000	> 1000
COc1c(Cl)cccc1Nc1c(-c2ccncc2F)[nH]c2c1C(=O)NC[C@@]21CCN(S(C)(=O)=O)C1 [compound 493]	> 1000	100 to 1000	100 to 1000	100 to 1000
COc1c(Cl)cccc1Nc1c(-c2ccncc2F)[nH]c2c1C(=O)NC[C@]21CCN(S(C)(=O)=O)C1 [compound 494]	> 1000	> 1000	> 1000	> 1000
COc1c(Cl)cccc1Nc1c(-c2ccncc2F)[nH]c2c1C(=O)NC[C@H]2CC(C)(C)O [compound 495, (7R)-3-[(3-chloro-2-methoxyphenyl)amino]-2-(3-fluoropyridin-4-yl)-7-(2-hydroxy-2-methylpropyl)-1H,5H,6H,7H-pyrrolo[3,2-c]pyridin-4-one]	> 1000	< 100	< 100	< 100
COc1cc2nccc(-c3[nH]c4c(c3Nc3cccc(Cl)c3OC)C(=O)NCC4)c2nc1OCCN(C)C [compound 501, 3-[(3-chloro-2-methoxyphenyl)amino]-2-{6-[2-(dimethylamino)ethoxy]-7-methoxy-1,5-naphthyridin-4-yl}-1H,5H,6H,7H-pyrrolo[3,2-c]pyridin-4-one]	100 to 1000	< 100	< 100	< 100
COc1c(Cl)cccc1Nc1c(-c2ccnc3ccc(OCCCN4CCOCC4)nc23)[nH]c2c1C(=O)NCC2 [compound 503, 3-[(3-chloro-2-methoxyphenyl)amino]-2-{6-[3-(morpholin-4-yl)propoxy]-1,5-naphthyridin-4-yl}-1H,5H,6H,7H-pyrrolo[3,2-c] pyridin-4-one]	100 to 1000	< 100	< 100	< 100
COc1c(Cl)cccc1Nc1c(-c2ccnc3ccc(OCCN4CCOCC4)nc23)[nH]c2c1C(=O)NCC2 [compound 504, 3-[(3-chloro-2-methoxyphenyl)amino]-2-{6-[2-(morpholin-4-yl)ethoxy]-1,5-naphthyridin-4-yl}-1H,5H,6H,7H-pyrrolo[3,2-c] pyridin-4-one]	100 to 1000	< 100	< 100	100 to 1000
COc1c(Cl)cccc1Nc1c(-c2ccnc3cnc(OCCCN4CCOCC4)nc23)[nH]c2c1C(=O)NCC2 [compound 505, 3-[(3-chloro-2-methoxyphenyl)amino]-2-{2-[3-(morpholin-4-yl)propoxy]pyrido[3,2-d]pyrimidin-8-yl}-1H,5H,6H,7H-pyrrolo[3,2-c]pyridin-4-one]	> 1000	< 100	< 100	100 to 1000
COc1c(Cl)cccc1Nc1c(-c2ccnc3cnc(OCCN4CCOCC4)nc23)[nH]c2c1C(=O)NCC2 [compound 506, 3-[(3-chloro-2-methoxyphenyl)amino]-2-{2-[2-(morpholin-4-yl)ethoxy]pyrido[3,2-d]pyrimidin-8-yl}-1H,5H,6H,7H-pyrrolo[3,2-c]pyridin-4-one]	> 1000	100 to 1000	100 to 1000	100 to 1000
COc1c(Cl)cccc1Nc1c(-c2ccnc(Nc3cnoc3C)n2)[nH]c2c1C(=O)NCC2 [compound 510, 3-[(3-chloro-2-methoxyphenyl)amino]-2-{2-[(5-methyl-1,2-oxazol-4-yl)amino]pyrimidin-4-yl}-1H,5H,6H,7H-pyrrolo[3,2-c]pyridin-4-one]	> 1000	< 100	< 100	100 to 1000
COc1c(Cl)cccc1Nc1c(-c2ccnc(Nc3cc(C)n(C)n3)n2)[nH]c2c1C(=O)NCC2 [compound 513, 3-[(3-chloro-2-methoxyphenyl)amino]-2-{2-[(1,5-dimethylpyrazl-3-yl)amino]pyrimidin-4-yl}-1H,5H,6H,7H-pyrrolo[3,2-c]pyridin-4-one]	< 100	< 100	< 100	< 100
